Experimental data reported in US20230392118A1, “GENERATION OF CD4+ EFFECTOR AND REGULATORY T CELLS FROM HUMAN PLURIPOTENT STEM CELLS” (Sangamo Therapeutics, Inc., priority 2020, published 2023).

Tested on: dox-inducible GFP expression cassette
Assay: Dox-inducible GFP expression cassette integrated into AAVS1 locus of iPSCs
Type: cell-based, human
Experimental: This Example describes an experiment in which a green fluorescent protein expression cassette was integrated into the AAVS1 gene locus as illustrated in FIG. 21. AAVS1 ZFN mRNA and donor plasmid were delivered into iPSCs via electroporation on Day −7. One week later (Day 0), puromycin was added (0.3 μg/mL) to the tissue culture to begin positive selection for cells having undergone targeted integration. Doxycycline was added at Day 15 and maintained in culture at 3 different doses (0.3, 1, and 3 μg/mL) to induce expression of the dox-inducible GFP expression cassette. […] Cells were maintained in the presence of doxycycline for 13 days. During this period, the 3 μg/mL dose of doxycycline yielded the highest level of inducible GFP transgene expression (94%; FIG. 22). This high level of expression was sustained while doxycycline was present in culture. Cells were maintained in puromycin as well as doxycycline from Day 15-28 and were further positively selected (increase from ˜50% to ˜70% of alleles with targeted integration).

COc1ccc(C[C@H](N)C(=O)N[C@H]2[C@@H](O)[C@H](n3cnc4c(N(C)C)ncnc43)O[C@@H]2CO)cc1 [puromycin]
Alleles with targeted integration after positive selection (puromycin as well as doxycycline, Day 15-28, increase from ~50%): ~70%

C[C@H]1c2cccc(O)c2C(=O)C2=C(O)[C@]3(O)C(=O)C(C(N)=O)=C(O)[C@@H](N(C)C)[C@@H]3[C@@H](O)[C@@H]21 [doxycycline]
Inducible GFP transgene expression (3 μg/mL doxycycline, iPSCs, maintained 13 days): 94%
